Test results as given in patent publication US20230233569A1 (Revolution Medicines, Inc., priority 2020, published 2023).
Like-named read-outs stand apart in the source and are kept apart here.

Assays:
Test in all cases: Ras-Raf disruption / FRET / MOA assay (BRAF RBD)
Format in all cases: biochemical
[1] = molecular target: KRAS G12C (Homo sapiens, UniProt P01116+P62937, G12C); settings: with Cyclophilin A
Procedure, shortened: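 TR-FRET read-out after 1.5 h with anti-His Eu-W1024 (10 nM) and anti-GST APC (50 nM), following 3 h at 25 °C of compound (top 30 μM, 3-fold, 10 points) with 25 μM Cyclophilin A, 12.5 nM GMPPNP-loaded K-Ras G12C and 50 nM BRAF RBD; IC50 reported.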

[2] = molecular target: NRAS Q61R (Homo sapiens, UniProt P01111+P62937, Q61R)
Procedure, shortened: (§1)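 Compound-induced Ras–Cyclophilin A ternary complex disrupting BRAF RBD binding, read as IC50 from reduced TR-FRET ratio relative to DMSO. Final: Ras-GMPPNP 12.5 nM, BRAF RBD 50 nM, Cyclophilin A 25 μM, top compound 30 μM (3-fold, 10 points); 3 h at 25 °C, then 1.5 h with detection antibodies.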

[3] = molecular target: KRAS WT (Homo sapiens, UniProt P01116+P62937); settings: with Cyclophilin A
Procedure, shortened: as §1

[4] = molecular target: KRAS G12D (Homo sapiens, UniProt P01116+P62937, G12D); settings: with Cyclophilin A
Procedure, shortened: as §1

[5] = molecular target: KRAS G13D (Homo sapiens, UniProt P01116+P62937, G13D); settings: with Cyclophilin A
Procedure, shortened: as §1

[6] = molecular target: NRAS G12C (Homo sapiens, UniProt P01111+P62937, G12C)
Procedure, shortened: as §1

[7] = molecular target: NRAS Q61K (Homo sapiens, UniProt P01111+P62937, Q61K)
Procedure, shortened: as §1

[8] = molecular target: NRAS WT (Homo sapiens, UniProt P01111+P62937)
Procedure, shortened: as §1

[9] = molecular target: KRAS G13C (Homo sapiens, UniProt P01116+P62937, G13C); settings: with Cyclophilin A
Procedure, shortened: as §1

[10] = molecular target: KRAS G12V (Homo sapiens, UniProt P01116+P62937, G12V); settings: with Cyclophilin A
Procedure, shortened: as §1

[11] = molecular target: KRAS Q61H (Homo sapiens, UniProt P01116+P62937, Q61H)
Procedure, shortened: as §1

[12] = molecular target: KRAS G12S (Homo sapiens, UniProt P01116+P62937, G12S); settings: with Cyclophilin A
Procedure, shortened: as §1

[13] = Ras-Raf disruption, read-out: KRAS G12C FRET data IC50
[14] = NRAS Q61R, read-out: NRAS Q61R FRET data IC50
[15] = Ras-Raf disruption, read-out: KRAS WT FRET data IC50
[16] = Ras-Raf disruption, read-out: KRAS G12D FRET data IC50
[17] = Ras-Raf disruption, read-out: KRAS G13D FRET data IC50
[18] = NRAS G12C, read-out: NRAS G12C FRET data IC50
[19] = NRAS Q61K, read-out: NRAS Q61K FRET data IC50
[20] = NRAS WT, read-out: NRAS WT FRET data IC50
[21] = Ras-Raf disruption, read-out: KRAS G13C FRET data IC50
[22] = Ras-Raf disruption, read-out: KRAS G12V FRET data IC50
[23] = KRAS Q61H, read-out: KRAS Q61H FRET data IC50
[24] = Ras-Raf disruption, read-out: KRAS G12S FRET data IC50
[25] = KRAS G12C FRET data IC50, Ras-Raf disruption
[26] = KRAS WT FRET data IC50, Ras-Raf disruption
[27] = KRAS G12D FRET data IC50, Ras-Raf disruption
[28] = KRAS G13D FRET data IC50, Ras-Raf disruption
[29] = NRAS G12C FRET data IC50, NRAS G12C
[30] = KRAS G13C FRET data IC50, Ras-Raf disruption
[31] = KRAS G12V FRET data IC50, Ras-Raf disruption
[32] = KRAS G12S FRET data IC50, Ras-Raf disruption

NRAS Q61R, sequence (P01111 whole entry Q61R): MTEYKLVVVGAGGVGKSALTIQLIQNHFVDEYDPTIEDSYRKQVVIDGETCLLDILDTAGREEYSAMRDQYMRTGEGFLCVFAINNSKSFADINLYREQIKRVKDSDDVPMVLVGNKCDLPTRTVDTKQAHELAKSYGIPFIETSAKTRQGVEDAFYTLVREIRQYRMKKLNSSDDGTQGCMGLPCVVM
NRAS Q61R, sequence (P62937 whole entry): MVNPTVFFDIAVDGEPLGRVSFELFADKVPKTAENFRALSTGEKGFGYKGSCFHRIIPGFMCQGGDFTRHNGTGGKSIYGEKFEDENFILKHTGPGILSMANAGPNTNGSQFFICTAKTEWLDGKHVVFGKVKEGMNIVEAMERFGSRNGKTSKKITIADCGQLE
KRAS Q61H, sequence (P01116 1-169 isoform P01116-2 Q61H limits assumed): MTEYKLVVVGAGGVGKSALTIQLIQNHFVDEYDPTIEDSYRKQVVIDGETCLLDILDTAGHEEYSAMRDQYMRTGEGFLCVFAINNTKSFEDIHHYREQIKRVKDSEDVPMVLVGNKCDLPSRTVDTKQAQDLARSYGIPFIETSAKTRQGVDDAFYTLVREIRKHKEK
KRAS Q61H, sequence (P62937 whole entry): as the sequence (P62937 whole entry) above
KRAS G12C, sequence (P01116 1-169 isoform P01116-2 G12C limits assumed): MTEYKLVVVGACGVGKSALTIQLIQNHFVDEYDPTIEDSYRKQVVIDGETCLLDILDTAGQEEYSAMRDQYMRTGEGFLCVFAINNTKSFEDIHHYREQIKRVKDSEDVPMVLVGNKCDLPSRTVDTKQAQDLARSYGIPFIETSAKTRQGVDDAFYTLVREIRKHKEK
KRAS G12C, sequence (P62937 whole entry): as the sequence (P62937 whole entry) above
KRAS G12S, sequence (P01116 1-169 isoform P01116-2 G12S limits assumed): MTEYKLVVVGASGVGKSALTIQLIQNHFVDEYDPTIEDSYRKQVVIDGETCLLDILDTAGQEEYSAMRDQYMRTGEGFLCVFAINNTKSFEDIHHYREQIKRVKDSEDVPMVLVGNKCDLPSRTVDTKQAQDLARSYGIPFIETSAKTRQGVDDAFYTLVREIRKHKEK
KRAS G12S, sequence (P62937 whole entry): as the sequence (P62937 whole entry) above
KRAS WT, sequence (P01116 1-169 isoform P01116-2 limits assumed): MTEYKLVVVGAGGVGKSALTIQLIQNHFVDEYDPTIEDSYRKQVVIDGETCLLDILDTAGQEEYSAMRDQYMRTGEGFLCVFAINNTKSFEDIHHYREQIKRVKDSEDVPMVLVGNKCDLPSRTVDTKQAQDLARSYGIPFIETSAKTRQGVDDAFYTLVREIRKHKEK
KRAS WT, sequence (P62937 whole entry): as the sequence (P62937 whole entry) above
KRAS G12V, sequence (P01116 1-169 isoform P01116-2 G12V limits assumed): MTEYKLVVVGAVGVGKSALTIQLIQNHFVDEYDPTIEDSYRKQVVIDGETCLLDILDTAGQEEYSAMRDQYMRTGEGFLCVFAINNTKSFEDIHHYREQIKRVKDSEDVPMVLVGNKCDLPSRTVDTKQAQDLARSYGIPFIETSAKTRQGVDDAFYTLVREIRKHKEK
KRAS G12V, sequence (P62937 whole entry): as the sequence (P62937 whole entry) above
NRAS G12C, sequence (P01111 whole entry G12C): as the sequence (P01111 whole entry Q61R) above, with G12C, R61Q counted along it
NRAS G12C, sequence (P62937 whole entry): as the sequence (P62937 whole entry) above
KRAS G12D, sequence (P01116 1-169 isoform P01116-2 G12D limits assumed): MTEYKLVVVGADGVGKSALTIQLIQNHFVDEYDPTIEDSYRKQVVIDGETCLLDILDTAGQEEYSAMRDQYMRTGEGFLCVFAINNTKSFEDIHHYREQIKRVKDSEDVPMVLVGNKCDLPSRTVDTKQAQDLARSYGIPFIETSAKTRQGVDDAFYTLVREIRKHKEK
KRAS G12D, sequence (P62937 whole entry): as the sequence (P62937 whole entry) above
KRAS G13D, sequence (P01116 1-169 isoform P01116-2 G13D limits assumed): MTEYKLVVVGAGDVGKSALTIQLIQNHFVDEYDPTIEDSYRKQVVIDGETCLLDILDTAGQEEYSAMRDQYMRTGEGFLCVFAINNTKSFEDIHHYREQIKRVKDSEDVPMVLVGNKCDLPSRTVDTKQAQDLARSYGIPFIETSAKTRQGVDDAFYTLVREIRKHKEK
KRAS G13D, sequence (P62937 whole entry): as the sequence (P62937 whole entry) above
NRAS Q61K, sequence (P01111 whole entry Q61K): as the sequence (P01111 whole entry Q61R) above, with R61K counted along it
NRAS Q61K, sequence (P62937 whole entry): as the sequence (P62937 whole entry) above
NRAS WT, sequence (P01111 whole entry): as the sequence (P01111 whole entry Q61R) above, with R61Q counted along it
NRAS WT, sequence (P62937 whole entry): as the sequence (P62937 whole entry) above
KRAS G13C, sequence (P01116 1-169 isoform P01116-2 G13C limits assumed): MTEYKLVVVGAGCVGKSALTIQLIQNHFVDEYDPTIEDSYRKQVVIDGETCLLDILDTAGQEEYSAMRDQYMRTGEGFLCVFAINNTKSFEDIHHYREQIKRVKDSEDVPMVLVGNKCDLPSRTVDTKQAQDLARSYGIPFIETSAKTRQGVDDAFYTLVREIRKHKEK
KRAS G13C, sequence (P62937 whole entry): as the sequence (P62937 whole entry) above

Structure (SMILES)	IC50 [1, 13] [nM]	IC50 [2, 14] [nM]	IC50 [3, 15] [nM]	IC50 [4, 16] [nM]	IC50 [5, 17] [nM]	IC50 [6, 18] [nM]	IC50 [7, 19] [nM]	IC50 [8, 20] [nM]	IC50 [9, 21] [nM]	IC50 [10, 22] [nM]	IC50 [11, 23] [nM]	IC50 [12, 24] [nM]	IC50 [1, 25] [nM]	IC50 [2] [nM]	IC50 [3, 26] [nM]	IC50 [4, 27] [nM]	IC50 [5, 28] [nM]	IC50 [6, 29] [nM]	IC50 [7] [nM]	IC50 [8] [nM]	further results
CCn1c(-c2cccnc2[C@H](C)OC)c2c3cc(ccc31)-c1csc(n1)C[C@H](NC(=O)[C@H](C(C)C)N(C)C(=O)N1CCN(C(=O)[C@H]3CN3)C[C@H]1C)C(=O)N1CCC[C@H](N1)C(=O)OCC(C)(C)C2 [Example 301]	10 to 100	10 to 100	10 to 100	100 to 1000	100 to 1000	10 to 100	10 to 100	10 to 100	10 to 100	100 to 1000	10 to 100	10 to 100	–	–	–	–	–	–	–	–	–
CCn1c(-c2cccnc2[C@H](C)OC)c2c3cc(ccc31)-c1csc(n1)C[C@H](NC(=O)[C@H](C(C)C)N(C)C(=O)N1CCN(C(=O)[C@@H]3CN3)C[C@H]1C)C(=O)N1CCC[C@H](N1)C(=O)OCC(C)(C)C2 [Example 302]	10 to 100	10 to 100	10 to 100	100 to 1000	100 to 1000	10 to 100	10 to 100	10 to 100	100 to 1000	10 to 100	10 to 100	10 to 100	–	–	–	–	–	–	–	–	–
CCn1c(-c2cccnc2[C@H](C)OC)c2c3cc(ccc31)-c1cc(O)cc(c1)C[C@H](NC(=O)[C@H](C(C)C)N1CC[C@]3(CCN(C(=O)[C@@H]4N[C@@H]4C4CC4)C3)C1=O)C(=O)N1CCC[C@H](N1)C(=O)OCC(C)(C)C2 [Example 305]	10 to 100	100 to 1000	10 to 100	< 10	100 to 1000	10 to 100	100 to 1000	10 to 100	10 to 100	10 to 100	10 to 100	10 to 100	–	–	–	–	–	–	–	–	–
CCN1C[C@@H]1C(=O)N(C)CC(=O)N(C)[C@H](C(=O)N[C@H]1Cc2cc(O)cc(c2)-c2ccc3c(c2)c(c(-c2cccnc2[C@H](C)OC)n3CC)CC(C)(C)COC(=O)[C@@H]2CCCN(N2)C1=O)C1CCCC1 (stereo partly drawn) [Example 309]	–	–	–	–	–	–	–	–	–	–	–	–	< 10	100 to 1000	10 to 100	10 to 100	10 to 100	< 10	100 to 1000	10 to 100	IC50 [9, 30]: 10 to 100 nM; IC50 [10, 31]: 10 to 100 nM; IC50 [11]: 10 to 100 nM; IC50 [12, 32]: 10 to 100 nM
CCn1c(-c2cccnc2[C@H](C)OC)c2c3cc(ccc31)-c1cc(O)cc(c1)C[C@H](NC(=O)[C@@H](COC1CN(C(=O)[C@H]3CN3)C1)C(C)C)C(=O)N1CCC[C@H](N1)C(=O)OCC(C)(C)C2 [Example 312]	< 10	1000 to 10000	100 to 1000	1000 to 10000	1000 to 10000	< 10	1000 to 10000	100 to 1000	100 to 1000	1000 to 10000	100 to 1000	1000 to 10000	–	–	–	–	–	–	–	–	–
CCn1c(-c2cccnc2[C@H](C)OC)c2c3cc(ccc31)-c1cc(O)cc(c1)C[C@H](NC(=O)[C@H](C1CCCC1)N(C)C(=O)CN(C)C(=O)[C@@H]1N[C@@H]1C1(F)CC1)C(=O)N1CCC[C@H](N1)C(=O)OCC(C)(C)C2 [Example 314]	–	–	–	–	–	–	–	–	–	–	–	–	10 to 100	100 to 1000	10 to 100	100 to 1000	10 to 100	10 to 100	100 to 1000	10 to 100	IC50 [9, 30]: 10 to 100 nM; IC50 [10, 31]: 10 to 100 nM; IC50 [11]: 10 to 100 nM; IC50 [12, 32]: 10 to 100 nM
CCn1c(-c2cccnc2[C@H](C)OC)c2c3cc(ccc31)-c1cc(O)cc(c1)C[C@H](NC(=O)[C@H](C1CCCC1)N(C)C(=O)CN(C)C(=O)[C@H]1N[C@H]1C1(F)CC1)C(=O)N1CCC[C@H](N1)C(=O)OCC(C)(C)C2 [Example 315]	–	–	–	–	–	–	–	–	–	–	–	–	10 to 100	100 to 1000	10 to 100	10 to 100	10 to 100	10 to 100	10 to 100	< 10	IC50 [9, 30]: 10 to 100 nM; IC50 [10, 31]: 10 to 100 nM; IC50 [11]: 10 to 100 nM; IC50 [12, 32]: 10 to 100 nM
